Results taken from US20130287721A1, “METHOD FOR COUNTERACTING AMMONIA MALODOR” (Firmenich SA, priority 2010, published 2013).

Test system: ammonia lateralization threshold
Test: Panel evaluation of the lateralization threshold (LT) of ammonia alone and in combination with a PRM
Type: in vivo, panellists
Set-up: LT of ammonia Panellist 1 Cond II / LT of ammonia Panellist 2 Cond II / LT of ammonia Panellist 3 Cond II: unit not given here
Details: for LT of ammonia Panellist 1 Cond II / LT of ammonia Panellist 2 Cond II / LT of ammonia Panellist 3 Cond II / LT of ammonia Panellist 1 %Δ / LT of ammonia Panellist 2 %Δ / LT of ammonia Panellist 3 %Δ: Table 4; for LT of ammonia Panellist 1 Cond II / LT of ammonia Panellist 2 Cond II / LT of ammonia Panellist 3 Cond II: ammonia stimulus combined with PRM stimulus; for LT of ammonia Panellist 1 %Δ / LT of ammonia Panellist 2 %Δ / LT of ammonia Panellist 3 %Δ / Ammonia LT Panellist 1 % Δ / Ammonia LT Panellist 2 % Δ / Ammonia LT Panellist 3 % Δ: change of ammonia LT, Cond II (with PRM) vs Cond I (ammonia alone); for Ammonia LT Panellist 1 Cond II / Ammonia LT Panellist 2 Cond II / Ammonia LT Panellist 1 % Δ / Ammonia LT Panellist 2 % Δ / Ammonia LT Panellist 3 Cond II / Ammonia LT Panellist 3 % Δ: Table 3; for Ammonia LT Panellist 1 Cond II / Ammonia LT Panellist 2 Cond II / Ammonia LT Panellist 3 Cond II: ammonia stimulus combined with PRM stimulus (concentration of Table 2 in propylene glycol)
Protocol: An ammonia stimulus test range was prepared. To ensure a stable level of ammonia in each stimulus, the ammonia headspace was stabilized by combining appropriate concentrations of NH4Cl, NaOH and H2O instead of simply adding ammonia directly to a solvent. Different concentrations of ammonia were used to create a stimulus test range by utilizing the appropriate amount of each compound (see Table 1).
A stimulus was also prepared for each PRM which was intended to be combined with ammonia stimuli. As the PRMs differed in their potency and to ensure that each PRM stimulus had approximately the same potency, an abbreviated dose response curve was constructed for each PRM by having four panellists evaluate the intensity of five concentration levels of the PRM dissolved in propylene glycol in duplicate. Assessments were made relative to the reference of 170 ppm allyl heptanoate in propylene glycol, which intensity was set to 0. Based upon the average scores, a rough intensity match was made for each PRM utilizing one of the following criteria. If one of the tested concentration levels averaged at or near zero, this concentration level was selected. If the rating created any sort of reasonable curve, the equation of the curve was determined and solved for 0 to arrive at the PRM assessment level. If multiple concentration levels were equally distant form the match level, then the standard deviation across individuals was considered, as were the individual responses. In general, the PRM level was selected to be on average close to 0 with low variability, with two panellists saying the level was a bit too high and the other two panellists saying the level was a bit too low. The PRMs for which a stimulus was prepared are listed in Table 2 below, together with the concentration of the PRM in the stimulus.
Volunteers were screened for their ability to lateralize ammonia stimuli. For the screening, the experimenter measured the participant's lateralization threshold for ammonia using a two-alternative forced choice modified staircase procedure employing a four-in, two-down, one-up rule with a five reversal criterion, as described below, On each trial volunteers were presented with a pair of glass bottles with clean, custom-made nose pieces. One bottle contained ammonia at a particular level selected from Table 1 and the other bottle contained water only. Each bottle was applied to one nostril using the nose piece. The volunteers were asked to identify which bottle in each pair contained ammonia.
If the ammonia stimulus was correctly identified in four consecutive trials, the concentration was decreased by one level of Table 1 on the next trial. If an incorrect answer was provided, the concentration was increased by one level of Table 1. Location (left or right nostril) of the stimulus was randomized over presentations. Testing continued until one of the following occurred: • 1) Five reversals (correct decision followed by an incorrect decision or vice versa) were achieved; • 2) The volunteer gave a correct response twice in a row at the lowest level of Table 1; or • 3) The volunteer gave an incorrect response at the highest level of Table 1.
In the first circumstance, threshold values were then calculated by averaging the last four reversals. In the second circumstance, the LT was the lowest level. In the third circumstance, the LT could not be calculated. Volunteers were considered qualified to participate in the panel evaluation if their LT could be calculated (Circumstance 1).
The LT of ammonia, both alone and in combination with diverse PRM, was determined. A repeated-measures design was used, such that the LT with and without the addition of a PRM were both measured at the same time in one person by utilizing interwoven stimuli presentations. The LT for each PRM was measured by two to three panellists, the third panellists being included if the results of the first to panellists disagreed. […]

Molecule | LT of ammonia Panellist 1 Cond II | LT of ammonia Panellist 2 Cond II | LT of ammonia Panellist 3 Cond II | LT of ammonia Panellist 1 %Δ | LT of ammonia Panellist 2 %Δ | LT of ammonia Panellist 3 %Δ | Ammonia LT Panellist 1 Cond II | Ammonia LT Panellist 2 Cond II | Ammonia LT Panellist 1 % Δ | Ammonia LT Panellist 2 % Δ | Ammonia LT Panellist 3 Cond II | Ammonia LT Panellist 3 % Δ
3-Methyl-(4/5)-cyclopentadecenone [Muscenone ™] | 11.1 | 11.1 | 11.1 | 454% | 77% | 214% | – | – | – | – | – | –
C=C1CCCC(C)(C)C1C(=O)/C=C/C (racemic) [Gamma damascone, (+−)-(E)-1-(2,2-dimethyl-6-methylene-1-cyclohexyl)-2-buten-1-one] | 6.3 | 19.6 | 11.1 | 214% | 885% | 456% | – | – | – | – | – | –
CC1C(=O)O[C@H]2C[C@@H](C)CC[C@H]12 (mixture of isomers) [Koumalactone ®, (3aRS,6SR,7aSR)-perhydro-3,6-dimethyl-benzo[B]furan-2-one] | – | – | – | – | – | – | 19.1 ppm | 71.9 ppm | 162% | 214% | – | –
CCCCC[C@H]1CCC[C@H]1O (relative stereo) [Cis-2-pentyl-1-cyclopentanol] | 2.0 | 0.4 | 3.5 | 216% | 90% | 212% | – | – | – | – | – | –
C[C@H]1[C@@H]2CC(C[C@@]13C=CC(=O)CC3)C2(C)C (single isomer, unassigned; (+)) | 0.4 | 0.6 | 0.6 | 75% | 417% | 215% | – | – | – | – | – | –
CCC1CC(C)(C)CCC1=O (stereo not shown) [2-Ethyl-4,4-dimethyl-1-cyclohexanone] | 3.5 | 2.0 | 2.0 | 212% | 471% | 217% | – | – | – | – | – | –
C=C(CC(C)CO)C1CC=C(C)C1(C)C (stereo not shown) [2-Methyl-4-(2,2,3-trimethyl-3-cyclopenten-1-yl)-4-penten-1-ol] | 3.5 | 3.5 | 2.0 | 212% | 212% | 852% | – | – | – | – | – | –
CC(=O)OCCC1CCCCC1 [2-cyclohexylethyl acetate] | 2.0 | 1.1 | 1.1 | 848% | 465% | 842% | – | – | – | – | – | –
CC(C)CCCC(C)CCO (stereo not shown) [3,7-Dimethyl-1-octanol] | 6.3 | 3.5 | 3.5 | 214% | 77% | 77% | – | – | – | – | – | –
CCCCC(CC)CCC(C)O (stereo not shown) [5-ethyl-2-nonanol] | 19.6 | 6.2 | 6.3 | 885% | 452% | 214% | – | – | – | – | – | –
CCCc1ccc2c(c1)OCC(=O)CO2 [7-Propyl-2H,4H-1,5-benzodioxepin-3-one] | 11.1 | 6.3 | 3.5 | 456% | 453% | 212% | – | – | – | – | – | –
C[C@@H]1CC[C@H]2[C@H](C)C(=O)O[C@@H]2C1 [(+)-(3S,3AS,6R,7AR)-perhydro-3,6-dimethyl-benzo[B]furan-2-one] | 19.6 | 3.5 | 11.1 | 885% | 4929% | 1682% | – | – | – | – | – | –
CC/C=C\CCO [(Z)-3-hexen-1-ol] | – | – | – | – | – | – | 2.3 ppm | 225.5 ppm | −68% | 0% | 56.3 ppm | 671%
CCC/C(C)=C\COC(C)=O [Aladinate ®, (Z)-3-methyl-2-hexenyl acetate] | – | – | – | – | – | – | 19.1 ppm | 71.9 ppm | −16% | 0% | – | –
C=CCOC(=O)CCCCCC [Allyl heptanoate] | – | – | – | – | – | – | 71.9 ppm | 225.5 ppm | 28% | 20% | – | –
CC(C)=CCC[C@](C)(O)[C@@H]1CC=C(C)CC1 [Alpha-bisabolol] | – | – | – | – | – | – | 7.3 ppm | 172.7 ppm | 213% | 655% | – | –
CC(OC=O)C1CCCC(C)(C)C1 (stereo not shown) [Aphermate] | – | – | – | – | – | – | 6.1 ppm | 71.9 ppm | −68% | −59% | – | –
CCCC(C)C(=O)OCC (stereo not shown) [Applinate ®, Ethyl 2-methyl-pentanoate] | – | – | – | – | – | – | 2.3 ppm | 55.1 ppm | −62% | −23% | – | –
CC=CC(=O)C1=C(C)CCCC1(C)C [Beta Dorinone ®, 1-(2,6,6-trimethyl-1-cyclohexen-1-yl)-2-buten-1-one] | 11.1 | 19.6 | 2.0 | 214% | 885% | 1558% | – | – | – | – | – | –
CCCCOC(C)=O [Butyl acetate] | – | – | – | – | – | – | 7.3 ppm | 225.5 ppm | 213% | 1079% | – | –
C=C(C)C1CC=C(C)C(=O)C1 (stereo not shown) [Carvone] | – | – | – | – | – | – | 19.1 ppm | 225.5 ppm | 214% | 214% | – | –
CC1(C)CCCC2(C)C1CCC1(C)OCCC12 (stereo not shown) [Cetalox ®, Dodecahydro-3a,6,6,9a-tetramethyl-naphtho[2,1-b]furan] | – | – | – | – | – | – | 2.3 ppm | 225.5 ppm | −90% | 2988% | 2.3 ppm | −68%
CC(C)=CCCC(C)CCO (stereo not shown) [Citronellol] | – | – | – | – | – | – | 60.0 ppm | 225.5 ppm | 2978% | 20% | – | –
COc1cc(C)ccc1O [Creosol H] | – | – | – | – | – | – | 17.9 ppm | 7.3 ppm | −68% | −90% | – | –
C=CCOC(=O)COC1CCCCC1 [Cyclogalbanate, Allyl (cyclohexyloxy)-acetate] | 2.0 | 6.3 | 3.5 | 216% | 453% | 212% | – | – | – | – | – | –
C/C=C/C(=O)C1C(C)C=CCC1(C)C (stereo not shown) [Delta damascone ®, Delta damascone] | – | – | – | – | – | – | 7.3 ppm | 225.5 ppm | −68% | 214% | 7.3 ppm | −96%
